Measurements from US20110319392A1, “Thiazole Sulfonamide And Oxazole Sulfonamide Kinase Inhibitors” (priority 2009, published 2011).
Counter-ions that a name gives are not always drawn.

How the values were obtained:
SK-MEL-3 tumor cells = assay: Cell growth inhibition assay (CellTiter-Glo), SK-MEL-3; format: cell-based, Human; details: for IC50: Homo sapiens, SK-MEL3
Method: (§1) Human breast tumor cells (BT474) were cultured in RPMI (Mediatech […]), containing 10% FBS (JRH Biosciences 12176) and 1% penicillin-streptomycin (Invitrogen 15140). Human head and neck tumor cells (HN5) were cultured in high glucose DMEM (Mediatech 50-013-PB) containing 10% FBS and 1% penicillin-streptomycin. Human colon tumor cells (Colo205) were cultured in RPMI (Mediatech 50-020-PB) containing 10% FBS and 1% penicillin-streptomycin. Human melanoma cancer cells (SK-MEL-28) were cultured in EMEM with nonessential amino acids (Mediatech 50-011-PB) containing 10% FBS, 1% sodium pyruvate (JT Baker 3354-04), and 1% penicillin-streptomycin. Human melanoma cancer cells (A375P F11s) were cultured in RPMI (Mediatech 50-020-PB) containing 10% FBS, 1% sodium pyruvate, and 1% penicillin-streptomycin. Human colon cancer cells (HT-29) were cultured in high glucose DMEM (Mediatech 50-013-PB) containing 10% FBS and 1% penicillin-streptomycin. Human melanoma cancer cells (SK-MEL-3) were cultured in McCoy's 5A (50-025-PB) containing 15% FBS, and 1% penicillin-streptomycin. All cell lines were maintained at 37° C. in a humidified 5% CO2, 95% air incubator. Cells were harvested using trypsin/EDTA (Invitrogen 25200), counted using a haemocytometer, and plated. For 96-well assays (using white full-area NUNC plates cat. #136102), cells were plated in 105 μL at the following densities (cells/well): HNS, 500; Colo 205, 500; SK-MEL-28, 500; A375P F11s, 500; HT-29, 500; SK-MEL-3, 500; and BT474, 3000. For 384-well assays (white full-area NUNC plates, cat. #781080), cells were plated in 48 μL at the following densities (cells/well): HNS, 500; Colo205, 500; SK-MEL-28, 500; A375P F11s, 500; HT-29, 500; SK-MEL-3, 500; and BT474, 2000.
(§2) The next day, compounds were diluted as follow: For 96-well assays, 13.5 μL of compound in DMSO were diluted using nine (9) serial 1:3 dilutions of 4.5 μL in 9 of DMSO. Medium (270 μL/well of RPMI with 10% FBS and 1% penicillin-streptomycin) was added to the plates. Aliquots (7 μL) were added to cells in the final assay giving a final DMSO concentration of 0.2%. For 384-well assays, 15 μL of compound in DMSO were diluted using nine (9) serial 1:3 dilutions of 5 μL in 10 μL of DMSO, followed by a further dilution of 5 μL of compound with 95 μL of medium, of which 2 μL were added to cells in the final assay giving a final DMSO concentration of 0.2%. Cells were incubated at 37° C., 5% CO2 for 3 days.
(§3) Total ATP was measured (as a surrogate estimate of cell number) using CellTiter-Glo® reagent (Promega G7571). Briefly, plates were removed from the incubator and allowed to equilibrate to room temperature for 30 minutes. CellTiter-Glo® (25 μL or 55 μL for 384-well or 96-well assays, respectively) reagent was added to each well and plates were shaken on an orbital plate shaker for 2 minutes. Plates were incubated without shaking for a further 30 minutes and read on an LJL Analyst GT reader in luminometer mode with an integration time of 0.5 seconds per well. Percent inhibition of cell growth was calculated relative to DMSO vehicle-treated control wells. Concentration of compound required to give 50% inhibition of vehicle-treated control cell growth (IC50) was interpolated using a 4-parameter fit for determining IC50 using the following equation: Y=A +((B−A)/(1+((C/X)̂D))) where […].

BT474 tumor cells = assay: Cell growth inhibition assay (CellTiter-Glo), BT474; format: cell-based, Human; details: 3 days incubation
Method: as §1, §2, §3

B-Raf = B-Raf (Homo sapiens, UniProt P15056); assay: B-Raf Accelerated MEK ATPase assay (BRAMA), Method A or B; format: biochemical
B-Raf, sequence (P15056 whole entry): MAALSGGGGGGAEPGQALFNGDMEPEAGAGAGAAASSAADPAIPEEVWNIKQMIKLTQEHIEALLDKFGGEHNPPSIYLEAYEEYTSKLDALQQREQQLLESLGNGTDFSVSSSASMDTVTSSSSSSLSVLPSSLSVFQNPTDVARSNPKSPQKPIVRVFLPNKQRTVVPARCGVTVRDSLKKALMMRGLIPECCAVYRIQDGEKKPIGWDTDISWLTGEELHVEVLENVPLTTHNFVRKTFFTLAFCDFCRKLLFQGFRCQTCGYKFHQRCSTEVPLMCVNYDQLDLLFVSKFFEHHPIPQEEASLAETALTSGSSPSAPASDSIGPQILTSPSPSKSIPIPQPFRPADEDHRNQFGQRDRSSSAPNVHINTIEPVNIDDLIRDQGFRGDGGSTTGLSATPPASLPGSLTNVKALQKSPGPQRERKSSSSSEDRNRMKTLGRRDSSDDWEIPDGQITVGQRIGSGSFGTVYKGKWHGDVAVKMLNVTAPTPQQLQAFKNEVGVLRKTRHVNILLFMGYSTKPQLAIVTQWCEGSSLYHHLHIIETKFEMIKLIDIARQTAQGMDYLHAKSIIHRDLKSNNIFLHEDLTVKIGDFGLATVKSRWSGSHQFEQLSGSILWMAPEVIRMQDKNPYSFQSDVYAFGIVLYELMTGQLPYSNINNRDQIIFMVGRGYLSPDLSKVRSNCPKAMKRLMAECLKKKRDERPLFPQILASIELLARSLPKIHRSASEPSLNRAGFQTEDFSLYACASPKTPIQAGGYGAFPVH
Method in brief: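 Activated Raf plus non-phosphorylated MEK drives MEK-mediated ATP hydrolysis; ADP formation coupled via pyruvate kinase/lactate dehydrogenase to NADH oxidation. Method A read kinetically; Method B used 150 nM final MEK and a single end-point read.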

[1] = Method B: final MEK 150 nM, single end point read

Row | IC50 (BT474 tumor cells) [nM] | IC50 (B-Raf; Method A) [nM] | IC50 (SK-MEL-3 tumor cells) [nM] | IC50 (BT474 tumor cells; Homo sapiens, BT-474, 72 h) [nM] | IC50 (B-Raf; [1]) [nM] | Compound | Activity in SK-MEL-3 Tumor Cells (SK-MEL-3 tumor cells)
1 | 100 to 1000 | 100 to 1000 | – | – | – | CCNc1nc(-c2cccc(NS(=O)(=O)c3ccccc3)c2)c(-c2ccnc(Nc3ccc(OCCN4CCCC4)c(F)c3)n2)s1 [Example 1, N-(3-(2-(Ethylamino)-5-{2-[(3-fluoro-4-[[2-(1-pyrrolidinyl)ethyl]oxy}phenyl)amino]-4-pyrimidinyl}-1,3-thiazol-4-yl)phenyl]benzenesulfonamide] | ++ (activity of between 100 nM and 1 μM in SK-MEL-3 tumor cells)
2 | – | < 100 | < 100 | > 1000 | – | COCCN1CCN(c2ccc(Nc3nccc(-c4sc(C(C)C)nc4-c4cccc(NS(=O)(=O)c5ccccc5)c4)n3)cn2)CC1 [Example 6, N-[3-(2-(1-Methylethyl)-5-{2-[(6-{4-[2-(methyloxy)ethyl]-1-piperazinyl}-3-pyridinyl)amino]-4-pyrimidinyl}-1,3-thiazol-4-yl)phenyl]benzenesulfonamide] | –
3 | – | – | < 100 | > 1000 | < 100 | CC(C)c1nc(-c2cccc(NS(=O)(=O)c3ccccc3)c2)c(-c2ccnc(Nc3ccc(N4CCOCC4)nc3)n2)s1 [Example 8, N-{3-[2-(1-Methylethyl)-5-(2-{[6-(4-morpholinyl)-3-pyridinyl]amino}-4-pyrimidinyl)-1,3-thiazol-4-yl]phenyl}benzenesulfonamide hydrochloride] | –
4 | – | – | < 100 | > 1000 | < 100 | COc1ccc(Nc2nccc(-c3sc(C(C)C)nc3-c3cccc(NS(=O)(=O)c4ccccc4)c3)n2)cc1N1CCN(CCC#N)CC1 [Example 9, N-{3-[5-(2-{[3-[4-(2-Cyanoethyl)-1-piperazinyl]-4-(methyloxy)phenyl]amino}-4-pyrimidinyl)-2-(1-methylethyl)-1,3-thiazol-4-yl]phenyl}benzenesulfonamide] | –
5 | – | – | 100 to 1000 | > 1000 | < 100 | CC(=O)N1CCN(c2ccc(Nc3nccc(-c4sc(C(C)C)nc4-c4cccc(NS(=O)(=O)c5ccc(F)cc5)c4)n3)cn2)CC1 [Example 10, N-{3-[5-(2-{[6-(4-Acetyl-1-piperazinyl)-3-pyridinyl]amino}-4-pyrimidinyl)-2-(1-methylethyl)-1,3-thiazol-4-yl]phenyl}-4-fluorobenzenesulfonamide] | –
6 | – | – | < 100 | > 1000 | < 100 | CC(=O)N1CCN(c2ccc(Nc3nccc(-c4sc(C(C)C)nc4-c4cccc(NS(=O)(=O)c5cccc(F)c5)c4)n3)cn2)CC1 [Example 11, N-{3-[5-(2-{[6-(4-Acetyl-1-piperazinyl)-3-pyridinyl]amino}-4-pyrimidinyl)-2-(1-methylethyl)-1,3-thiazol-4-yl]phenyl}-3-fluorobenzenesulfonamide] | –
7 | – | – | < 100 | > 1000 | < 100 | CC(=O)N1CCN(c2ccc(Nc3nccc(-c4sc(C(C)C)nc4-c4cccc(NS(=O)(=O)c5ccccc5F)c4)n3)cn2)CC1 [Example 12, N-{3-[5-(2-{[6-(4-Acetyl-1-piperazinyl)-3-pyridinyl]amino}-4-pyrimidinyl)-2-(1-methylethyl)-1,3-thiazol-4-yl]phenyl}-2-fluorobenzenesulfonamide] | –
8 | – | – | < 100 | > 1000 | < 100 | CC(C)c1nc(-c2cccc(NS(=O)(=O)c3c(F)cccc3F)c2)c(-c2ccnc(Nc3ccc(OC4CCN(CCS(C)(=O)=O)CC4)c(F)c3)n2)s1 [Example 13, 2,6-Difluoro-N-{3-[5-(2-{[3-fluoro-4-({1-[2-(methylsulfonyl)ethyl]-4-piperidinyl}oxy)phenyl]amino}-4-pyrimidinyl)-2-(1-methylethyl)-1,3-thiazol-4-yl]phenyl}benzenesulfonamide hydrochloride] | –
9 | – | – | < 100 | > 1000 | < 100 | CC(C)c1nc(-c2cccc(NS(=O)(=O)c3c(F)cccc3F)c2)c(-c2ccnc(Nc3ccc(N4CCOCC4)c(C(=O)O)c3)n2)s1 [Example 14, 5-({4-[4-(3-{[(2,6-Difluorophenyl)sulfonyl]amino}phenyl)-2-(1-methylethyl)-1,3-thiazol-5-yl]-2-pyrimidinyl}amino)-2-(4-morpholinyl)benzoic acid] | –
10 | – | – | < 100 | > 1000 | < 100 | CC(C)c1nc(-c2cccc(NS(=O)(=O)c3c(F)cccc3F)c2)c(-c2ccnc(Nc3ccc(N4CCN5CCOC[C@H]5C4)nc3)n2)s1 [Example 15] | –
11 | – | – | < 100 | > 1000 | < 100 | CC(C)c1nc(-c2cccc(NS(=O)(=O)c3c(F)cccc3F)c2)c(-c2ccnc(Nc3ccc(N4CCN(CCS(C)(=O)=O)CC4)c(F)c3)n2)s1 [Example 16, 2,6-Difluoro-N-{3-[5-{2-[(3-fluoro-4-{4-[2-(methylsulfonyl)ethyl]-1-piperazinyl}phenyl)amino]-4-pyrimidinyl}-2-(1-methylethyl)-1,3-thiazol-4-yl]ohenyl}benzenesulfonamide hydrochloride] | –
12 | – | – | < 100 | > 1000 | < 100 | CC(C)c1nc(-c2cccc(NS(=O)(=O)c3c(F)cccc3F)c2)c(-c2ccnc(Nc3ccc(N4CCOCC4)nc3)n2)s1 [Example 17, 2,6-Difluoro-N-{3-[2-(1-methylethyl)-5-(2-{[6-(4-morpholinyl)-3-pyridinyl]amino}-4-pyrimidinyl)-1,3-thiazol-4-yl]phenyl}benzenesulfonamide] | –
13 | – | – | < 100 | > 1000 | < 100 | COc1ccc(Nc2nccc(-c3sc(C(C)C)nc3-c3cccc(NS(=O)(=O)c4c(F)cccc4F)c3)n2)cc1N(C)C [Example 18, N-{3-[5-(2-{[3-(Dimethylamino)-4-(methyloxy)phenyl]amino}-4-pyrimidinyl)-2-(1-methylethyl)-1,3-thiazol-4-yl]phenyl}-2,6-difluorobenzenesulfonamide trifluoroacetate] | –
14 | – | – | 100 to 1000 | > 1000 | < 100 | COc1cc(N2CCN(CCS(C)(=O)=O)CC2)c(C)cc1Nc1nccc(-c2sc(C(C)C)nc2-c2cccc(NS(=O)(=O)c3c(F)cccc3F)c2)n1 [Example 19] | –
15 | – | – | 100 to 1000 | > 1000 | < 100 | COc1cc(N2CCC(N3CCN(CCS(C)(=O)=O)CC3)CC2)ccc1Nc1nccc(-c2sc(C(C)C)nc2-c2cccc(NS(=O)(=O)c3c(F)cccc3F)c2)n1 [Example 20, 2,6-Difluoro-N-{3-[2-(1-methylethyl)-5-(2-{[2-(methyloxy)-4-(4-{4-[2-(methylsulfonyl)ethyl]-1-piperazinyl}-1-piperidinyl)phenyl]amino}-4-pyrimidinyl)-1,3-thiazol-4-yl]phenyl}benzenesulfonamide] | –
16 | – | – | < 100 | > 1000 | < 100 | O=S(=O)(Nc1cccc(-c2nc(N3CCCC3)sc2-c2ccnc(Nc3ccc(N4CCN(CCF)CC4)c(F)c3)n2)c1)c1c(F)cccc1F [Example 21, 2,6-Difluoro-N-{3-[5-[2-({3-fluoro-4-[4-(2-fluoroethyl)-1-piperazinyl]phenyl}amino)-4-pyrimidinyl]-2-(1-pyrrolidinyl)-1,3-thiazol-4-yl]phenyl}benzenesulfonamide] | –
17 | – | – | – | > 1000 | < 100 | CS(=O)(=O)CCN1CCN(c2ccc(Nc3nccc(-c4oc(N5CCCC5)nc4-c4ccc(F)c(NS(=O)(=O)c5c(F)cccc5F)c4)n3)cc2F)CC1 [Example 119] | –
